Results published in ChEMBL document CHEMBL1128140, “Novel indolocarbazole protein kinase c inhibitors with improved biochemical and physicochemical properties” (Bioorg Med Chem Lett, 1995).

Columns and labels:
[1] = biological target: Tyrosine-protein kinase Blk (Mus musculus, UniProt P16277); assay: Tested for inhibition of general tyrosine-specific protein kinase activity from murine B cell lysate; type: cell-based
[2] = Tested for inhibition of catalytic subunit of cAMP-dependent protein kinase from bovine heart
[3] = biological target: Protein kinase C (PKC); assay: Tested for inhibition of protein kinase C from rat brain
[4] = biological target: T1, cGMP-dependent protein kinase 1 (Bos taurus, UniProt P00516); assay: Tested for inhibition of cGMP-dependent protein kinase from bovine lung
T1 sequence (P00516 whole entry): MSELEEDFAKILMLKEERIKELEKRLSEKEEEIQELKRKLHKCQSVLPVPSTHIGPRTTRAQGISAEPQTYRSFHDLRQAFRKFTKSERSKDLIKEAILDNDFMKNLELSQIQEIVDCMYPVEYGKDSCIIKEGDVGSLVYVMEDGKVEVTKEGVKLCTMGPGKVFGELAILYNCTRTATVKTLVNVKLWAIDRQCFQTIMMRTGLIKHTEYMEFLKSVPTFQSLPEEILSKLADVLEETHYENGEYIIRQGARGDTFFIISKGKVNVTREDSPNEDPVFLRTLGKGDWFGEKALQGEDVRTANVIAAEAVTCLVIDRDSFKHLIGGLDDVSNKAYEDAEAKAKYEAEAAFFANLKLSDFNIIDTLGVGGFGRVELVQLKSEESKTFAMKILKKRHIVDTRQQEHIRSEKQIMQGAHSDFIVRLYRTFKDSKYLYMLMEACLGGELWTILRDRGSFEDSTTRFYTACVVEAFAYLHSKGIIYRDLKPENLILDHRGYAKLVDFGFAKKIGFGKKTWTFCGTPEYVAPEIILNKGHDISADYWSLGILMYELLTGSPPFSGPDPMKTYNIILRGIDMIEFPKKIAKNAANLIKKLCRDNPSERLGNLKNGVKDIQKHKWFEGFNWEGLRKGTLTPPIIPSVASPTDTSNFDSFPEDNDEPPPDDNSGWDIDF

Sequence of Tyrosine-protein kinase Blk (P16277 whole entry): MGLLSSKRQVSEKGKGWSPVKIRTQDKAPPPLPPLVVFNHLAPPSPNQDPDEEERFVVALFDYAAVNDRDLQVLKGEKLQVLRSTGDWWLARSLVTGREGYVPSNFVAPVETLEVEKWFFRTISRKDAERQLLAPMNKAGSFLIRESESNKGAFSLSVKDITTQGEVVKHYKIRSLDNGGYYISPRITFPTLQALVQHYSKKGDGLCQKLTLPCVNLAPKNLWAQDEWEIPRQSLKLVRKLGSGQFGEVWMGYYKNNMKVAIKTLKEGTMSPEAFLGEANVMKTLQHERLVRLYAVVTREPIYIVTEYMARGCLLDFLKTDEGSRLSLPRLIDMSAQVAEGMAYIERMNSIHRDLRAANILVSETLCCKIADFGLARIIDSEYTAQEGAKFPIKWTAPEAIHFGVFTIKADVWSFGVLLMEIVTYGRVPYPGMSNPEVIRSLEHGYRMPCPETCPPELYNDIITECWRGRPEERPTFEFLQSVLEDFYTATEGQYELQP

Compound	IC50 [1] [nM]	IC50 [2] [nM]	IC50 [3] [nM]	IC50 [4] [nM]	IC50 ([3]; read-out: IC50) [nM]
Cn1c2ccccc2c2c3c(c4c5ccccc5n(CCC#N)c4c21)C(=O)NC3=O		> 30000	38	7200	
COc1ccc2c(c1)c1c3c(c4c5ccccc5n(C)c4c1n2CC(O)CN(C)C)C(=O)NC3=O (centres undefined)		510	4	4800	
Cn1c2ccccc2c2c3c(c4c5ccccc5n(CCCN)c4c21)CNC3=O		750	32	220	
CN(C)CC(O)Cn1c2ccccc2c2c3c(c4c5ccccc5n(C)c4c21)C(=O)NC3=O (centres undefined)		6300	21	2100	
CN(C)CCCn1c2ccccc2c2c3c(c4c5ccccc5[nH]c4c21)C(=O)NC3		> 10000	230	420	
COc1ccc2c(c1)c1c3c(c4c5ccccc5n(C)c4c1n2CCCC#N)C(=O)NC3=O		200	5	1000	
CN(C)CC(O)Cn1c2ccccc2c2c3c(c4c5ccccc5n(C)c4c21)C(=O)NC3 (centres undefined)	> 100000	24000	30	9400	
CN(C)CCCn1c2ccc(O)cc2c2c3c(c4c5cc(O)ccc5[nH]c4c21)C(=O)NC3			16		
CN(C)CCCn1c2ccccc2c2c3c(c4c5ccccc5n(C)c4c21)C(=O)NC3		9900	45	870	

Other lines, results leading:

IC50 [1] [nM]	IC50 [2] [nM]	IC50 [3] [nM]	IC50 [4] [nM]	IC50 ([3]; read-out: IC50) [nM]	Compound
> 10000	400	2	> 3000		COc1ccc2c(c1)c1c3c(c4c5ccccc5n(C)c4c1n2CCC#N)C(=O)NC3=O
		16			COc1ccc2c(c1)c1c3c(c4c5ccccc5n(CCC#N)c4c1n2C)C(=O)NC3=O
		6			COc1ccc2c(c1)c1c3c(c4c5cc(OC)ccc5n(CCC#N)c4c1n2C)C(=O)NC3=O
	> 100000			20	Cn1c2ccccc2c2c3c(c4c5ccccc5n(CCC#N)c4c21)CNC3=O [GO-6976]
		9			Cn1c2ccc(O)cc2c2c3c(c4c5cc(O)ccc5n(CCC#N)c4c21)CNC3=O
> 10000	45000	56	2000		COc1ccc2c(c1)c1c3c(c4c5cc(OC)ccc5n(CCC#N)c4c1n2C)CNC3=O
		550			COc1ccc2[nH]c3c(c4c(c5c6cc(OC)ccc6n(CCCN(C)C)c35)CNC4=O)c2c1
> 10000	15000	86	23000		COc1ccc2c(c1)c1c3c(c4c5ccccc5n(C)c4c1n2CC(O)CN(C)C)C(=O)NC3 (centres undefined)
